Experiments:
human NK1 receptor = human NK1 receptor (Homo sapiens, UniProt P25103); assay: NK1 receptor binding, [3H]substance P displacement, CHO cell membranes; settings: first value of the cell pKi NK1/NK3; human NK1 receptor, [3H]substance P
[1] = target: T1, Recombinant human NK3 (hNK3) receptor (Homo sapiens, UniProt P29371); assay: NK3 receptor binding, [3H]SR142801 displacement, membrane preparations; settings: second value of the cell pKi NK1/NK3; hNK3 receptor, [3H]SR142801
T1 construct: expressed in transfected cells
T1 sequence (P29371 1-465): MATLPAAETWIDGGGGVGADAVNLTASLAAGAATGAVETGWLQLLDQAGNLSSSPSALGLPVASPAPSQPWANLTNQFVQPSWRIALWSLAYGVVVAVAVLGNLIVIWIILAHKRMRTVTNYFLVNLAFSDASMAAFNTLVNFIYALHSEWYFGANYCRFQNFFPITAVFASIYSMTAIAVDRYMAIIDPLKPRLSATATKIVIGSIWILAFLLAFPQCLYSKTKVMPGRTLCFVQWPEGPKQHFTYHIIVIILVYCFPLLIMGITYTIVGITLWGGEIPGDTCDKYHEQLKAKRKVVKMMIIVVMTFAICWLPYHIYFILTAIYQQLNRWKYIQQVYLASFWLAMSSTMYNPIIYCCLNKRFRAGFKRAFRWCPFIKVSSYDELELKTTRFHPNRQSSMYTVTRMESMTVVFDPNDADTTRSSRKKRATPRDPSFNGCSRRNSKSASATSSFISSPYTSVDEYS
Summary of the method: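 Buffer: Tris-HCl 50 mM pH 7.4, BSA 0.1%, MnCl2 4 mM, phosphoramidon 1 μM. ~2.5 μg membrane/well, 90 min RT. NSB with SB222200 (10 μM). Vacuum filtration over 0.3% PEI-treated GF/C, cold Tris/BSA washes, scintillation count; duplicates, ≥2 experiments.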

human NK1 receptor, sequence (P25103 whole entry): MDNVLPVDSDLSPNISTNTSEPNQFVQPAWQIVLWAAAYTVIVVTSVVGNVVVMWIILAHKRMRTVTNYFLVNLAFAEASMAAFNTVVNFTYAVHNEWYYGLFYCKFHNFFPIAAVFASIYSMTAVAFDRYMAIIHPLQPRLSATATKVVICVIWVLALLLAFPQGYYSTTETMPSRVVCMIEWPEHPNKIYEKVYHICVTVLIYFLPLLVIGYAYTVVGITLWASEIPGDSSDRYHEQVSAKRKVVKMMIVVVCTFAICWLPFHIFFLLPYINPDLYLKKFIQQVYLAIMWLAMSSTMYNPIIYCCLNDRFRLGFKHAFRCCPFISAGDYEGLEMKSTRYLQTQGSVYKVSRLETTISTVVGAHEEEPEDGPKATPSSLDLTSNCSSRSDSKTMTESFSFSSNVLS

| SMILES | Ki (human NK1 receptor) | Ki [1] |
| --- | --- | --- |
| Cc1ccccc1-c1cc(NC[C@@H](O)CO)ncc1N(C)C(=O)C(C)(C)c1cc(C(F)(F)F)cc(C(F)(F)F)c1 [Example 123, (R)-2-(3,5-Bis-trifluoromethyl-phenyl)-N-[6-(2,3-dihydroxy-propylamino)-4-o-tolyl-pyridin-3-yl]-N-methyl-isobutyramide] | 2.51 nM | 12.6 nM |
| CC(O)CN(CC(C)O)c1cc(-c2ccccc2Cl)c(N(C)C(=O)C(C)(C)c2cc(C(F)(F)F)cc(C(F)(F)F)c2)cn1 (centres unmarked) [Example 124, N-[6-[Bis-(2-hydroxy-propyl)-amino]-4-(2-chloro-phenyl)-pyridin-3-yl]-2-(3,5-bis-trifluoromethyl-phenyl)-N-methyl-isobutyramide] | 2.63 nM | 13.8 nM |
| CN(C(=O)C(C)(C)c1cc(C(F)(F)F)cc(C(F)(F)F)c1)c1cnc(NC[C@H](O)CO)cc1-c1ccccc1Cl [Example 125, (S)-2-(3,5-Bis-trifluoromethyl-phenyl)-N-[4-(2-chloro-phenyl)-6-(2,3-dihydroxy-propylamino)-pyridin-3-yl]-N-methyl-isobutyramide] | 2.82 nM | 13.8 nM |
| CN(C(=O)C(C)(C)c1cc(C(F)(F)F)cc(C(F)(F)F)c1)c1cnc(NC[C@@H](O)CO)cc1-c1ccccc1Cl [Example 126, (R)-2-(3,5-Bis-trifluoromethyl-phenyl)-N-[4-(2-chloro-phenyl)-6-(2,3-dihydroxy-propylamino)-pyridin-3-yl]-N-methyl-isobutyramide] | 2.51 nM | 7.76 nM |
| Cc1c(F)cccc1-c1cc(N(CCO)CCO)ncc1N(C)C(=O)C(C)(C)c1cc(C(F)(F)F)cc(C(F)(F)F)c1 [Example 127, N-[6-[Bis-(2-hydroxy-ethyl)-amino]-4-(3-fluoro-2-methyl-phenyl)-pyridin-3-yl]-2-(3,5-bis-trifluoromethyl-phenyl)-N-methyl-isobutyramide] | 2.19 nM | 1.51 nM |
| Cc1ccc(F)cc1-c1cc(N(CCO)CCO)ncc1N(C)C(=O)C(C)(C)c1cc(C(F)(F)F)cc(C(F)(F)F)c1 [Example 128, N-[6-[Bis-(2-hydroxy-ethyl)-amino]-4-(5-fluoro-2-methyl-phenyl)-pyridin-3-yl]-2-(3,5-bis-trifluoromethyl-phenyl)-N-methyl-isobutyramide] | 2.63 nM | 5.62 nM |
| CN(C(=O)C(C)(C)c1cc(C(F)(F)F)cc(C(F)(F)F)c1)c1cnc(N2C[C@H](O)C[C@H]2CO)cc1-c1ccccc1Br [Example 129, (2S,4R)-2-(3,5-Bis-trifluoromethyl-phenyl)-N-[4-(2-bromo-phenyl)-6-(4-hydroxy-2-hydroxymethyl-pyrrolidin-1-yl)-pyridin-3-yl]-N-methyl-isobutyramide] | 0.851 nM | 2.63 nM |
| CN(C(=O)C(C)(C)c1cc(C(F)(F)F)cc(C(F)(F)F)c1)c1cnc(N2CC[C@H](O)[C@H]2CO)cc1-c1ccccc1Br [Example 130, (2R,3S)-2-(3,5-Bis-trifluoromethyl-phenyl)-N-[4-(2-bromo-phenyl)-6-(3-hydroxy-2-hydroxymethyl-pyrrolidin-1-yl)-pyridin-3-yl]-N-methyl-isobutyramide] | 1.66 nM | 2.29 nM |
| C[C@H](O)CNc1cc(-c2ccccc2Br)c(N(C)C(=O)C(C)(C)c2cc(C(F)(F)F)cc(C(F)(F)F)c2)cn1 [Example 131, (S)-2-(3,5-Bis-trifluoromethyl-phenyl)-N-[4-(2-bromo-phenyl)-6-(2-hydroxy-propylamino)-pyridin-3-yl]-N-methyl-isobutyramide] | 1.07 nM | 4.27 nM |
| CN(C(=O)C(C)(C)c1cc(C(F)(F)F)cc(C(F)(F)F)c1)c1cnc(N[C@H]2CC[C@H](O)CC2)cc1-c1ccccc1Br [Example 132, trans-2-(3,5-Bis-trifluoromethyl-phenyl)-N-[4-(2-bromo-phenyl)-6-(4-hydroxy-cyclohexylamino)-pyridin-3-yl]-N-methyl-isobutyramide] | 1.32 nM | 7.24 nM |
| CC(=O)N[C@H]1CCN(c2cc(-c3ccccc3Br)c(N(C)C(=O)C(C)(C)c3cc(C(F)(F)F)cc(C(F)(F)F)c3)cn2)C1 [Example 133, (S)-N-[6-(3-Acetylamino-pyrrolidin-1-yl)-4-(2-bromo-phenyl)-pyridin-3-yl]-2-(3,5-bis-trifluoromethyl-phenyl)-N-methyl-isobutyramide] | 0.794 nM | 2 nM |
| CN(C(=O)C(C)(C)c1cc(C(F)(F)F)cc(C(F)(F)F)c1)c1cnc(N(CCO)CCO)cc1-c1ccccc1Br [Example 134, N-[6-[Bis-(2-hydroxy-ethyl)-amino]-4-(2-bromo-phenyl)-pyridin-3-yl]-2-(3,5-bis-trifluoromethyl-phenyl)-N-methyl-isobutyramide] | 2.24 nM | 2.19 nM |
| CN(C(=O)C(C)(C)c1cc(C(F)(F)F)cc(C(F)(F)F)c1)c1cnc(N2C[C@H](O)C[C@H]2CO)cc1-c1ccc(Cl)c(Cl)c1 [Example 135, (2S,4R)-2-(3,5-Bis-trifluoromethyl-phenyl)-N-[4-(3,4-dichloro-phenyl)-6-(4-hydroxy-2-hydroxymethyl-pyrrolidin-1-yl)-pyridin-3-yl]-N-methyl-isobutyramide] | 4.27 nM | 31.6 nM |
| CN(C(=O)C(C)(C)c1cc(C(F)(F)F)cc(C(F)(F)F)c1)c1cnc(N2C[C@H](O)C[C@H]2CO)cc1-c1ccc(Cl)cc1Cl [Example 136, (2S,4R)-2-(3,5-Bis-trifluoromethyl-phenyl)-N-[4-(2,4-dichloro-phenyl)-6-(4-hydroxy-2-hydroxymethyl-pyrrolidin-1-yl)-pyridin-3-yl]-N-methyl-isobutyramide] | 1.62 nM | 1.45 nM |
| CN(C(=O)C(C)(C)c1cc(C(F)(F)F)cc(C(F)(F)F)c1)c1cnc(N2CC[C@H](O)[C@H]2CO)cc1-c1ccc(Cl)cc1Cl [Example 137, (2R,3S)-2-(3,5-Bis-trifluoromethyl-phenyl)-N-[4-(2,4-dichloro-phenyl)-6-(3-hydroxy-2-hydroxymethyl-pyrrolidin-1-yl)-pyridin-3-yl]-N-methyl-isobutyramide] | 2.82 nM | 1.35 nM |
| CN(C(=O)C(C)(C)c1cc(C(F)(F)F)cc(C(F)(F)F)c1)c1cnc(N2CC[C@H](O)[C@H]2CO)cc1-c1ccccc1Cl [Example 138, (2R,3S)-2-(3,5-Bis-trifluoromethyl-phenyl)-N-[4-(2-chloro-phenyl)-6-(3-hydroxy-2-hydroxymethyl-pyrrolidin-1-yl)-pyridin-3-yl]-N-methyl-isobutyramide] | 1.66 nM | 1 nM |
| Cc1cc(F)ccc1-c1cc(NC(CO)CO)ncc1N(C)C(=O)C(C)(C)c1cc(C(F)(F)F)cc(C(F)(F)F)c1 [Example 142, 2-(3,5-bis-trifluoromethyl-phenyl)-N-[4-(4-fluoro-2-methyl-phenyl)-6-(2-hydroxy-1-hydroxymethyl-ethylamino)-pyridin-3-yl]-N-methyl-isobutyramide] | 1.29 nM | 2.57 nM |
| Cc1ccccc1-c1cc(NC(CO)CO)ncc1N(C)C(=O)C(C)(C)c1cc(C(F)(F)F)cc(C(F)(F)F)c1 [Example 143, 2-(3,5-Bis-trifluoromethyl-phenyl)-N-[6-(2-hydroxy-1-hydroxymethyl-ethylamino)-4-o-tolyl-pyridin-3-yl]-N-methyl-isobutyramide] | 3.02 nM | 3.63 nM |
| C[C@@H](O)[C@@H](CO)Nc1cc(-c2ccccc2Cl)c(N(C)C(=O)C(C)(C)c2cc(C(F)(F)F)cc(C(F)(F)F)c2)cn1 [Example 144, (1R,2R)-2-(3,5-Bis-trifluoromethyl-phenyl)-N-[4-(2-chloro-phenyl)-6-(2-hydroxy-1-hydroxymethyl-propylamino)-pyridin-3-yl]-N-methyl-isobutyramide] | 3.63 nM | 1.2 nM |
| C[C@H](O)[C@@H](CO)Nc1cc(-c2ccccc2Cl)c(N(C)C(=O)C(C)(C)c2cc(C(F)(F)F)cc(C(F)(F)F)c2)cn1 [Example 145, (1R,2S)-2-(3,5-Bis-trifluoromethyl-phenyl)-N-[4-(2-chloro-phenyl)-6-(2-hydroxy-1-hydroxymethyl-propylamino)-pyridin-3-yl]-N-methyl-isobutyramide] | 0.832 nM | 7.94 nM |
| C[C@@H](O)[C@H](CO)Nc1cc(-c2ccccc2Cl)c(N(C)C(=O)C(C)(C)c2cc(C(F)(F)F)cc(C(F)(F)F)c2)cn1 [Example 146, (1S,2R)-2-(3,5-Bis-trifluoromethyl-phenyl)-N-[4-(2-chloro-phenyl)-6-(2-hydroxy-1-hydroxymethyl-propylamino)-pyridin-3-yl]-N-methyl-isobutyramide] | 0.891 nM | 11.7 nM |
| C[C@H](O)[C@H](CO)Nc1cc(-c2ccccc2Cl)c(N(C)C(=O)C(C)(C)c2cc(C(F)(F)F)cc(C(F)(F)F)c2)cn1 [Example 147, (1S,2S)-2-(3,5-Bis-trifluoromethyl-phenyl)-N-[4-(2-chloro-phenyl)-6-(2-hydroxy-1-hydroxymethyl-propylamino)-pyridin-3-yl]-N-methyl-isobutyramide] | 0.724 nM | 10.5 nM |

Source: patent publication US8404708B2, “Dual NK1/NK3 receptor antagonists” (Hoffmann-La Roche Inc., priority 2004, dated 2013)
